Laboratory results reported in PMC12040169 (PLOS Biology, 2025).

Assay: in vitro
Conditions: human, hela cells, % viability

Going from `NC(=O)c1ccccc1/N=C/c1ccc([N+](=O)[O-])o1` [CBK261675] to `O=[N+]([O-])c1ccc(NC(c2ccccc2)C2CC2)nc1` (centres unmarked) [CBK295317], the viability at 28.5 h, 10 µM falls from 105% to 96.6%.

Compared with `O=C(COc1ccc(Cl)cc1Cl)Nc1ccc(CN2CCCCC2)cc1` [CBK266164], `O=C(Nc1ccc(S(=O)(=O)N2CCCC2)cc1)C1CC(=O)N(Cc2ccco2)C1` (centres unmarked) [CBK297500] is lower in viability at 28.5 h, 10 µM: 105% for the first, 92.5% for the second.

First: Cc1cc(O)n2nc(C)c(-c3ccc(F)cc3)c2n1 [CBK283642]
Second: Cc1nnc(O)c2c(C)n(-c3ccc(Br)cc3)nc12 [CBK008726]
The viability at 28.5 h, 10 µM of the first is higher: 89.3% for the first, 86.2% for the second.

First: c1ccc(N2CCN(CC3CN(c4ccccc4)c4ccccc4O3)CC2)cc1 (centres unmarked) [CBK066876]
Second: c1ccc2c(c1)OCC(COc1ccnc(N3CCCN(CCc4ccc5ccccc5c4)CC3)n1)O2 (centres unmarked) [CBK083983]
The viability at 28.5 h, 10 µM of the first is lower: 86% for the first, 90.7% for the second.

Compared with `CC1CCCN(CC(C)(C)NC(=O)c2cc(C(F)(F)F)nn2C)C1` (centres unmarked) [CBK281598], `Cc1cc(C)n(CC(=O)N2CCCCC2C(=O)O)n1` (centres unmarked) [CBK305266] is higher in viability at 28.5 h, 10 µM: 87.9% for the first, 91.3% for the second.

Going from `C=CCN(C(=S)NCc1ccc2c(c1)OCO2)C1CCCCC1` [CBK200037] to `O=C1N=C(NCC2CCCCC2)SC1CC(=O)N1Cc2ccccc2C1` (centres unmarked) [CBK067016], the viability at 28.5 h, 10 µM falls from 97.9% to 85.1%.

Going from `CS(=O)(=O)c1ccc(-c2cccc(COC3CCN(C(=O)Cc4ccc(Cl)cc4)CC3)c2)cc1` [CBK149504] to `COc1ccc(-c2cc(-c3ccccc3)c(C#N)c(S(=O)(=O)Cc3ccccc3)n2)cc1` [CBK265949], the viability at 28.5 h, 10 µM falls from 110% to 89.6%.

Going from `O=C(NCc1cccnc1)c1ccc(CSc2ccccc2)cc1` [CBK300544] to `CCN(Cc1ccccc1)C(=O)Nc1ccc2[nH]ccc2c1` [CBK155229], the viability at 28.5 h, 10 µM falls from 101% to 95.2%.

Going from `CC1CCCN(C(=O)CCn2c(-c3ccccn3)cc3cccnc32)C1` (centres unmarked) [CBK282154] to `N#CCCn1cc(C(=O)N2CCCCC2)c(-c2ccc(F)cc2)n1` [CBK306191], the viability at 28.5 h, 10 µM rises from 91.2% to 91.8%.

Going from `O=C(NCC(=O)N(c1cccc(C(F)(F)F)c1)C(C(=O)NCc1ccco1)c1ccccc1F)c1ccco1` (centres unmarked) [CBK084740] to `COc1cccc(C(=O)Nc2ccc(NC(=O)C3CC=CCC3C(=O)O)cc2)c1` (centres unmarked) [CBK266316], the viability at 28.5 h, 10 µM rises from 96% to 107%.

First: COc1ccc(Br)cc1CNCCCN1CCOCC1 [CBK278208C]
Second: O=C(O)C1CC(=O)N(CCc2c[nH]c3ccc(Cl)cc23)C1 (centres unmarked) [CBK287211]
The viability at 28.5 h, 10 µM of the first is higher: 102% for the first, 91% for the second.

First: C=CCOCc1cc(O)n2nc(SC)c(C(N)=O)c2n1 [CBK008592]
Second: CCOc1cccc(CN2CCCCC2c2[nH]ncc2C(N)=O)n1 (centres unmarked) [CBK304750]
The viability at 28.5 h, 10 µM of the first is lower: 94.6% for the first, 98.9% for the second.

First: NC(=O)c1ccc(-c2ccc(/C=C3/C(=O)NN(c4ccc(F)cc4)C3=O)o2)cc1 [CBK098345]
Second: Cc1ccc(C(=O)O)cc1S(=O)(=O)Nc1ccc(-c2cn3ccsc3n2)cc1 [CBK296688]
The viability at 28.5 h, 10 µM of the first is higher: 89.9% for the first, 85.2% for the second.

Going from `O=C(c1cscn1)N1CCN(c2ncccn2)CC1` [CBK144506] to `CC(=O)c1ccc(-c2cnc(N)c(N3CCN(C)CC3)n2)s1` [CBK063432], the viability at 28.5 h, 10 µM rises from 87.9% to 94.4%.

Compared with `CCSc1nc(N)c(NC(=O)c2ccco2)c(=O)[nH]1` [CBK287613], `CC(=O)c1ccc(NC(=O)c2cccc(Cl)c2)cc1` [CBK033939] is lower in viability at 28.5 h, 10 µM: 92.4% for the first, 89.3% for the second.

Going from `Cc1c(C(=O)N(C)CCc2ccncc2)[nH]c2ccccc12` [CBK283271] to `Clc1cc(Cl)cc(-c2cn3ccnc3c(NCc3ccncc3)n2)c1` [CBK066664], the viability at 28.5 h, 10 µM falls from 104% to 94.3%.

First: COc1cc(CNc2cncc(-c3cccc(C(=O)NCCO)c3)n2)cc(OC)c1OC [CBK065421]
Second: CCOC(=O)CN1CCC(Oc2cncc(OCc3cccnc3)n2)C1 (centres unmarked) [CBK084462]
The viability at 28.5 h, 10 µM of the first is lower: 98.5% for the first, 99.4% for the second.

Work on `CCN1c2ccc(-c3cncn3CC(=O)NC(C)(C)C)cc2CC1C` (centres unmarked) [CBK281815] yielded a viability at 28.5 h, 10 µM of 95.7%.
